Results published in ChEMBL document CHEMBL1201862, “PubChem BioAssay data set” (2004).
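Exposure lasted 48 hours, with cells grown in 96-well plates and compounds tested at five concentrations. Here, GI50 denotes the concentration required for 50% inhibition of growth.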 The source made the active and inactive calls. Cut-off read from the data, not from the text of the source: active = GI50 up to about 1.1 µM and inactive = higher.

Columns and labels:
Assay in all cases: NCI anticancer screen, dose series, 48 h
ACHN = tested on: ACHN
BT-549 = tested on: BT-549
COLO 205 = tested on: COLO 205
DU-145 = tested on: DU-145
EKVX = tested on: EKVX
IGROV-1 = tested on: IGROV-1
M14 = tested on: M14
MDA-N = tested on: MDA-N
Malme-3M = tested on: Malme-3M
NCI-H226 = tested on: NCI-H226
NCI-H460 = tested on: NCI-H460
OVCAR-5 = tested on: OVCAR-5
SF-268 = tested on: SF-268
SK-MEL-28 = tested on: SK-MEL-28
SK-MEL-2 = tested on: SK-MEL-2
SK-OV-3 = tested on: SK-OV-3
SNB-75 = tested on: SNB-75
SNB-78 = tested on: SNB-78
UACC-62 = tested on: UACC-62
UO-31 = tested on: UO-31

Structure (SMILES)	GI50 (ACHN)	GI50 (BT-549)	GI50 (COLO 205)	GI50 (DU-145)	GI50 (EKVX)	GI50 (IGROV-1)	GI50 (M14)	GI50 (MDA-N)	GI50 (Malme-3M)	GI50 (NCI-H226)	GI50 (NCI-H460)	GI50 (OVCAR-5)	GI50 (SF-268)	GI50 (SK-MEL-28)	GI50 (SK-MEL-2)	GI50 (SK-OV-3)	GI50 (SNB-75)	GI50 (SNB-78)	GI50 (UACC-62)	GI50 (UO-31)
Cc1cc2c(cc1C)[n+]([O-])c(C(=O)/C=C/c1ccc3c(c1)OCO3)c(C)[n+]2[O-]	40900 nM (inactive)	69300 nM (inactive)	> 100000 nM (inactive)	> 80500 nM (inactive)	> 70000 nM (inactive)	48400 nM (inactive)	98900 nM (inactive)	> 100000 nM (inactive)	73100 nM (inactive)	86500 nM (inactive)	> 91800 nM (inactive)	> 100000 nM (inactive)	29400 nM (inactive)	> 100000 nM (inactive)	27900 nM (inactive)	19800 nM (inactive)	19700 nM (inactive)	60300 nM (inactive)	29900 nM (inactive)	> 100000 nM (inactive)
CC[C@@]1(OP(=O)(O)O)C(=O)OCc2c1cc1n(c2=O)Cc2cc3ccccc3nc2-1	40.5 nM (active)	201 nM (active)	847 nM (active)	48.8 nM (active)	1120 nM (inactive)	311 nM (active)	77.6 nM (active)	537 nM (active)	1670 nM (inactive)	179 nM (active)	30.8 nM (active)	231 nM (active)	48.6 nM (active)	1220 nM (inactive)	2940 nM (inactive)	342 nM (active)	160 nM (active)	4630 nM (inactive)	38.1 nM (active)	83.6 nM (active)
CCC1(OC(=O)CN2CCN(CCO)CC2)C(=O)OCc2c1cc1n(c2=O)Cc2cc3ccccc3nc2-1 (stereo not given)	66.7 nM (active)	736 nM (active)	2040 nM (inactive)	82.2 nM (active)	4510 nM (inactive)	778 nM (active)	265 nM (active)	1630 nM (inactive)	1950 nM (inactive)	329 nM (active)	61.4 nM (active)	1100 nM (active)	138 nM (active)	3330 nM (inactive)	4250 nM (inactive)	1170 nM (inactive)	234 nM (active)	5250 nM (inactive)	75.9 nM (active)	169 nM (active)
